Bridges are numbered along the chain shown (N, C = ends).
Tests used:
[1] = Direct HA-binding ELISA of biotinylated peptides on HA coated plates (Example 4); design: key to HA binding: absorbance (color) read at 450 nm; conditions: for HA binding: as repeated in tables 16, 18, 20; for HA direct binding (OD): optical density, summary tables 15, 17, 19
Summary of the method: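 N-terminally biotinylated peptides (AEEA spacer) added to HA-coated wells at 0.8 or 0.08 μM, n=3, overnight at 4° C with shaking; biotin-labeled 7 kDa RHAMM as positive control. Bound peptide detected with streptavidin-HRP (1 hr, room temperature) and TMB substrate (5-10 min), absorbance at 450 nm.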

[2] = test system: IMR90 human fetal lung fibroblasts; assay: Fibrosis assay: active TGF-β levels in TGF-β treated fibroblasts (ELISA); format: cell-based; conditions: for Fibrosis (% inhib.): % inhibition relative to positive control; for inhibition of fibrosis (active TGF-β, in words): 10 ng/mL peptide, 48 hours, compared to +TGFβ1 control
Experimental: Compounds 132, 133, 135, 150, 152, 157-161, 265-269, 275, 277, and 278 were evaluated for their ability to inhibit fibrosis. IMR90 human fetal lung fibroblasts were obtained from ATCC and maintained in DMEM supplemented with 10% fetal bovine serum. In order to examine the effect of peptides on myofibroblast differentiation, 80% confluent cultures were serum starved overnight prior to addition of TGF-β (2 ng/mL, R&D Systems). Cells were treated with TGF-β for 24 hours prior to addition of peptides (10 ng/mL). 48 hours after addition of peptides, culture supernatants were collected and levels of active TGF-β measured using commercially available TGF-β ELISA (Quantikine, R&D Systems).
Values are the Mean and SDM n=3 replicates. *p<0.05, **p<0.01, ***p<0.001 when compared to the +TGFβ1 control. In FIG. 47, where bars are labeled with two compound numbers (“133/150” and “135/152”) this means that the data were pooled for the indicated compounds, i.e., for the non-acetylated and acetylated versions of the indicated peptides.

[3] = Function blocking score: total percent inhibition over migration, invasion, inflammation and fibrosis assays divided by number of assays; format: cell-based; conditions: total percent inhibition for all assays tested divided by number of assays
Experimental: As documented in the Examples hereinabove, a variety of cyclized peptides were produced that contained the HA-binding domain 1 (HABD1), HA-binding domain 2 (HABD2), or both HABD1 and HABD2. These peptides were evaluated for helicity, direct HA binding and in a number of cell-based bioassays (effects on migration, invasion, NFkB activation, and TGFβ1 production) that are relevant to inflammation and fibrosis. The relationships amongst helicity, HA-binding, and biofunction were evaluated. Peptides were divided into three groups for this analysis: (1) peptides containing HABD1 (“HABD1”); (2) peptides containing HABD2 (“HABD2”); and peptides containing most or all of HABD1 and all of HABD2 (“HABD1+HABD2”). R^2 values were calculated to quantify the relationships between helicity, HA-binding, and biofunction were evaluated.
The results of this analysis for the HABD1 peptides are shown below in Tables 15 and 16. Table 16 provides a function blocking scores for each of the tested peptides and provides R^2 values showing the relationship between HA binding and helicity (“HA binding vs. CD”), HA binding and function-blocking score (“HA binding vs. FBS”) and helicity vs. function-blocking score (“CD vs. FBS”). The same type of summaries are provided for the HABD2 peptides in Tables 17 and 18 below, and for the HABD1+HABD2 peptides in Tables 19 and 20 below.
Function blocking scores were calculated as the total percent inhibition achieved by the peptide for all assays the peptides were tested in, divided by the number of assays. Assays included migration, invasion, inflammation and fibrosis assays. Not all peptides were tested all of the assays. All peptides were included for deriving R^2 values (Pearson's formula).

NF-κB = assay: Inflammation assay: NF-κB inducible SEAP reporter in RAW-Blue macrophages stimulated with PAM3CSK4; format: cell-based, murine; conditions: for Inflammation (% Inhib.): % inhibition relative to positive control
Experimental: Compounds 132, 133, 135, 150, 152, 157-161, 265-269, 275, 277, and 278 were evaluated for their ability to inhibit inflammation. To determine the effect of the peptides on inflammation, commercially available murine RAW 264.7 macrophages carrying a secreted embryonic alkaline phosphatase (SEAP) reporter that is inducible by NF-κB (RAW-Blue; InvivoGen, San Diego, Calif., USA) were used. Cells were grown to 80% confluence in DMEM containing 4.5 g/L glucose, 10% heat-inactivated fetal bovine serum, 2 mM L-glutamine, 50 μg/mL penicillin/streptomycin, 100 μg/mL Normocin (InvivoGen) at 37° C. in 5% CO2. For peptide screening experiments, cells were scraped in growth medium, counted, and plated to flat-bottom 96-well plates at a density of 5×10^4 cells/well either in the presence or absence (control) of 200 ng/mL TLR1/TLR2 agonist PAM3CSK4 (InvivoGen). Peptides were added in 6 replicate wells at a dose of 10 ng/mL in the presence of PAM3CSK4. After 18 hours of stimulation, SEAP concentrations (indicating NF-κB activity) were measured in the supernatants collected from the RAW-Blue cells using QUANTI-BLUE reagent (InvivoGen). After 20 minutes of incubation at 37° C., SEAP levels were determined using spectrophotometry at a wavelength of 630 nm.
Values are the mean and SDM of n=3 replicates. *p<0.05 and ***p<0.001 compared to +PAM3. In FIGS. 44 and 45, where bars are labeled with two compound numbers (“133/150” and “135/152”) this means that the data were pooled for the indicated compounds, i.e., for the non-acetylated and acetylated versions of the indicated peptides.

Substance	HA binding [1]	HA direct binding (OD) [1]	Fibrosis (% inhib.) [2]	Function blocking score (FBS) [3]	Inflammation (% Inhib.) (NF-κB)	inhibition of fibrosis (active TGF-β, in words) [2]	inhibition of inflammation (SEAP / NF-κB activity, in words) (NF-κB; 10 ng/mL peptide with 200 ng/mL PAM3CSK4, 18 hours, compared to +PAM3)
Ac-(cyclo-7,11)-NLKQKI[EHVVK]LKDE-NH2 (Ac-NLKQKIEHVVKLKDE-NH2; lactam 7-11; SMILES CC[C@H](C)[C@H](NC(=O)[C@H](CCCCN)NC(=O)[C@H](CCC(N)=O)NC(=O)[C@H](CCCCN)NC(=O)[C@H](CC(C)C)NC(=O)[C@H](CC(N)=O)NC(C)=O)C(=O)N[C@H]1CCC(=O)NCCCC[C@@H](C(=O)N[C@@H](CC(C)C)C(=O)N[C@@H](CCCCN)C(=O)N[C@@H](CC(=O)O)C(=O)N[C@@H](CCC(=O)O)C(N)=O)NC(=O)[C@H](C(C)C)NC(=O)[C@H](C(C)C)NC(=O)[C@H](Cc2c[nH]cn2)NC1=O) [Compound 160]	0.004	0.004 OD	0 % inhib.	0	0 % Inhib.	–	–
Ac-(cyclo-7-11, cyclo-28-32)-NLKQKI[EHVVK]LKDENSQLKSEVSKLR[EQLVK]RKQN-NH2 (Ac-NLKQKIEHVVKLKDENSQLKSEVSKLREQLVKRKQN-NH2; lactam 7-11, 28-32; SMILES CC[C@H](C)[C@H](NC(=O)[C@H](CCCCN)NC(=O)[C@H](CCC(N)=O)NC(=O)[C@H](CCCCN)NC(=O)[C@H](CC(C)C)NC(=O)[C@H](CC(N)=O)NC(C)=O)C(=O)N[C@H]1CCC(=O)NCCCC[C@@H](C(=O)N[C@@H](CC(C)C)C(=O)N[C@@H](CCCCN)C(=O)N[C@@H](CC(=O)O)C(=O)N[C@@H](CCC(=O)O)C(=O)N[C@@H](CC(N)=O)C(=O)N[C@@H](CO)C(=O)N[C@@H](CCC(N)=O)C(=O)N[C@@H](CC(C)C)C(=O)N[C@@H](CCCCN)C(=O)N[C@@H](CO)C(=O)N[C@@H](CCC(=O)O)C(=O)N[C@H](C(=O)N[C@@H](CO)C(=O)N[C@@H](CCCCN)C(=O)N[C@@H](CC(C)C)C(=O)N[C@@H](CCCNC(=N)N)C(=O)N[C@H]2CCC(=O)NCCCC[C@@H](C(=O)N[C@@H](CCCNC(=N)N)C(=O)N[C@@H](CCCCN)C(=O)N[C@@H](CCC(N)=O)C(=O)N[C@@H](CC(N)=O)C(N)=O)NC(=O)[C@H](C(C)C)NC(=O)[C@H](CC(C)C)NC(=O)[C@H](CCC(N)=O)NC2=O)C(C)C)NC(=O)[C@H](C(C)C)NC(=O)[C@H](C(C)C)NC(=O)[C@H](Cc2c[nH]cn2)NC1=O) [Compound 278]	0.125	0.125 OD	0 % inhib.	12	0 % Inhib.	strong trend towards inhibition of fibrosis	–
Ac-(cyclo-8,12)-NLKQKIK[EVVKK]KDE-NH2 (Ac-NLKQKIKEVVKKKDE-NH2; lactam 8-12; SMILES CC[C@H](C)[C@H](NC(=O)[C@H](CCCCN)NC(=O)[C@H](CCC(N)=O)NC(=O)[C@H](CCCCN)NC(=O)[C@H](CC(C)C)NC(=O)[C@H](CC(N)=O)NC(C)=O)C(=O)N[C@@H](CCCCN)C(=O)N[C@H]1CCC(=O)NCCCC[C@@H](C(=O)N[C@@H](CCCCN)C(=O)N[C@@H](CC(=O)O)C(=O)N[C@@H](CCC(=O)O)C(N)=O)NC(=O)[C@H](CCCCN)NC(=O)[C@H](C(C)C)NC(=O)[C@H](C(C)C)NC1=O) [Compound 161]	0.009	0.009 OD	38 % inhib.	22	6 % Inhib.	–	significantly inhibited inflammation
Ac-(cyclo-10-14, cyclo-15-19)-KIKHVVKLK[EENSK][EKSEK]SKLRSQLVKRK-NH2 (Ac-KIKHVVKLKEENSKEKSEKSKLRSQLVKRK-NH2; lactam 10-14, 15-19; SMILES CC[C@H](C)[C@H](NC(=O)[C@H](CCCCN)NC(C)=O)C(=O)N[C@@H](CCCCN)C(=O)N[C@@H](Cc1c[nH]cn1)C(=O)N[C@H](C(=O)N[C@H](C(=O)N[C@@H](CCCCN)C(=O)N[C@@H](CC(C)C)C(=O)N[C@@H](CCCCN)C(=O)N[C@H]1CCC(=O)NCCCC[C@@H](C(=O)N[C@H]2CCC(=O)NCCCC[C@@H](C(=O)N[C@@H](CO)C(=O)N[C@@H](CCCCN)C(=O)N[C@@H](CC(C)C)C(=O)N[C@@H](CCCNC(=N)N)C(=O)N[C@@H](CO)C(=O)N[C@@H](CCC(N)=O)C(=O)N[C@@H](CC(C)C)C(=O)N[C@H](C(=O)N[C@@H](CCCCN)C(=O)N[C@@H](CCCNC(=N)N)C(=O)N[C@@H](CCCCN)C(N)=O)C(C)C)NC(=O)[C@H](CCC(=O)O)NC(=O)[C@H](CO)NC(=O)[C@H](CCCCN)NC2=O)NC(=O)[C@H](CO)NC(=O)[C@H](CC(N)=O)NC(=O)[C@H](CCC(=O)O)NC1=O)C(C)C)C(C)C) [Compound 266]	0.24	0.24 OD	24 % inhib.	28	0 % Inhib.	strong trend towards inhibition of fibrosis	–
Ac-(cyclo-10-14, cyclo-15-19)-KIKHVVKLK[EENSK][KKSEE]SKLRSQLVKRK-NH2 (Ac-KIKHVVKLKEENSKKKSEESKLRSQLVKRK-NH2; lactam 10-14, 15-19; SMILES CC[C@H](C)[C@H](NC(=O)[C@H](CCCCN)NC(C)=O)C(=O)N[C@@H](CCCCN)C(=O)N[C@@H](Cc1c[nH]cn1)C(=O)N[C@H](C(=O)N[C@H](C(=O)N[C@@H](CCCCN)C(=O)N[C@@H](CC(C)C)C(=O)N[C@@H](CCCCN)C(=O)N[C@H]1CCC(=O)NCCCC[C@@H](C(=O)N[C@H]2CCCCNC(=O)CC[C@@H](C(=O)N[C@@H](CO)C(=O)N[C@@H](CCCCN)C(=O)N[C@@H](CC(C)C)C(=O)N[C@@H](CCCNC(=N)N)C(=O)N[C@@H](CO)C(=O)N[C@@H](CCC(N)=O)C(=O)N[C@@H](CC(C)C)C(=O)N[C@H](C(=O)N[C@@H](CCCCN)C(=O)N[C@@H](CCCNC(=N)N)C(=O)N[C@@H](CCCCN)C(N)=O)C(C)C)NC(=O)[C@H](CCC(=O)O)NC(=O)[C@H](CO)NC(=O)[C@H](CCCCN)NC2=O)NC(=O)[C@H](CO)NC(=O)[C@H](CC(N)=O)NC(=O)[C@H](CCC(=O)O)NC1=O)C(C)C)C(C)C) [Compound 268]	0.19	0.19 OD	0 % inhib.	14	0 % Inhib.	–	–
Ac-(cyclo-10-14, cyclo-15-19)-KIKHVVKLK[KENSE][EKSEK]SKLRSQLVKRK-NH2 [Compound 269]	0.19	0.19 OD	0 % inhib.	13	0 % Inhib.	–	–

Source: patent publication US10562935B2, “Stapled peptides and uses thereof” (London Health Sciences Centre Research Inc., priority 2015, dated 2020)
